{
  "source": "patent US10806711B2",
  "about": "(priority 2011, dated 2020)",
  "key": {"[1]": {"test_system": "isolated ventricular myocytes", "test": "Myocyte contractility measurement", "type": "cell-based, mouse", "method": "Isolation of ventricular myocytes—Hearts from WT mice (12-week old) were perfused on the Langendorff system with a modified Krebs-Henseleit buffer (KHB) composed of (mM) NaCl 118, KCl 5.4, HEPES 10, NaH2PO4 0.33, MgCl2 2, glucose 10, taurine 30, butanedione monoxime 10 (pH=7.4). Then an enzyme solution (KHB containing 0.7 mg/ml type II collagenase, 0.1% BSA and 25 μM CaCl2) was used to digest the hearts for 10 min. Finally, ventricles of the hearts were excised, minced and filtered to obtain isolated cells. After sufficient sedimentation, the supernatant was removed and the cells were resuspended. Myocyte contractility measurement—Myocytes were put on a plexiglass chamber containing a Tyrode's solution composed of (mM) NaCl 140, KCl, 5.4, MgCl2 1, CaCl2 1.8, HEPES 5, glucose 10 (pH=7.4). Myocytes were excited under 0.5 Hz field stimulation. After reaching the steady state, myocyte shortening and the rates of shortening (+dL/dt) and relengthening (−dL/dt) were imaged with a CCD camera and monitored by a video-edge detector. Drugs were dissolved in Tyrode's solution and perfused into the chamber. Data were continuously collected through the PCLAMP 9 software. Water soluble probenecid was used for all of the myocyte experiments."}, "WT mice [2]": {"test_system": "WT mice", "test": "Invasive evaluation of +dP/dt (LV pressure catheter)", "type": "in vivo, mouse", "conditions": "30 mg/kg and 100 mg/kg bolus IV, 5 minutes between doses", "method": "Invasive evaluation.—Once a dose range was established, a separate group of WT mice were anesthetized with an intraperitoneal injection of ketamine (50 μg/g) and inactin (thiobutabarbital, 100 μg/g, Sigma, Mass.). A tracheotomy was performed (PE-90), and body temperature was monitored and maintained with a feedback-controlled heating table. The right femoral artery was cannulated with fluid-filled polyethylene tubing for measurement of blood pressure and connected to a low compliance pressure transducer (COBE Cardiovascular, Arvada, Colo.). The right femoral vein was cannulated for delivery of drugs. A high fidelity, 1.2-French SciSence pressure catheter (SciSence, London, ON, Canada) was inserted into the right carotid artery and advanced into the left ventricle to monitor cardiac performance. ECG leads were placed on the right and left arms, and left leg and connected to a BIOAmp (AD Instruments, Colorado Springs, Colo.). For carotid blood flow measurements, the left carotid artery was isolated and fitted with a 0.5-PSB perivascular flow probe connected to a TS420 flowmeter (Transonic Systems, Ithaca, N.Y.). […] Hemodynamic variables were collected and analyzed using a MacLab 4/S system (AD Instruments, Colorado Springs, Colo.) and Chart software."}, "WT mice [3]": {"test_system": "WT mice", "test": "In vivo electrophysiology (electrocardiographic data during echo studies)", "design": "species or system mouse", "method": "In vivo electrophysiology—Electrocardiographic data was obtained during all echocardiographic studies. These studies were subsequently analyzed by an independent, blinded reader at all time points to evaluate for electrocardiographic changes and drug induced arrhythmias. The following parameters were measured: PR interval, RR interval, QRS width and were reported as peak change while the presence of supraventricular or ventricular arrhythmias was measured as a total observed over all images obtained in 30 minutes."}, "[4]": {"test_system": "phospholamban (PLN) and the ryanodine receptor (RyR), NCX, SERCA2a", "test": "Western blot of calcium handling proteins in Langendorff hearts", "design": "species or system mouse", "description": "Western Blot Analysis—WT hearts used for protein expression were isolated from control mice (C57, 12-16 weeks old) from the Langendorff experiments. Total protein for calcium handling proteins was isolated by homogenizing whole hearts in an ice-cold buffer containing (in mM): 80 Imidazole, 300 sucrose, 1 DTT, 10 sodium metabisulfite, the protease inhibitor cocktail P8340 (Sigma, St. Louis, Mo.) and the phosphatase inhibitor cocktail set II (EMD, Merck, Darmstadt, Germany). Protein concentrations were determined using the BCA Protein Assay kit (Pierce, Thermo Scientific, Rockford, Ill.). Aliquots of protein were separated on SDS-PAGE gels (Novex gels, Invitrogen, Eugene, Oreg.) and then transferred to nitrocellulose membranes (Bio-Rad, Hercules, Calif.) and blocked with 5% BSA. The membranes were analyzed with primary antibodies. When appropriate, the membranes were cut in half to allow two different primary antibodies to be used. The top half would be used for one of the Ca^2+ handling proteins and the bottom half (less than 60 kD) would be used for the normalization protein, actin. In circumstances where it wasn't appropriate to cut the membrane, as the two proteins were too close in size, the membranes were stripped after the first protein. Membranes were also stripped between primary antibodies for phosphorylated proteins and corresponding total protein."}, "TRPV2": {"test_system": "TRPV2", "conditions": "HEK293 cells, identified 2007; cited from earlier work"}, "[5]": {"test_system": "isolated ventricular myocytes", "test": "Myocyte Ca2+ transient and cytosolic Ca2+ measurement", "type": "cell-based, mouse", "method": "Isolation of ventricular myocytes—Hearts from WT mice (12-week old) were perfused on the Langendorff system with a modified Krebs-Henseleit buffer (KHB) composed of (mM) NaCl 118, KCl 5.4, HEPES 10, NaH2PO4 0.33, MgCl2 2, glucose 10, taurine 30, butanedione monoxime 10 (pH=7.4). Then an enzyme solution (KHB containing 0.7 mg/ml type II collagenase, 0.1% BSA and 25 μM CaCl2) was used to digest the hearts for 10 min. Finally, ventricles of the hearts were excised, minced and filtered to obtain isolated cells. After sufficient sedimentation, the supernatant was removed and the cells were resuspended.\nMyocyte Ca^2+ transient and cytosolic Ca^2+ measurement—Myocytes were loaded with Fluo-4 acetoxymethyl ester (7 μM) for 20 min at room temperature, followed by a 10 min wash with Tyrode's solution, and then placed onto a plexiglass chamber for recording. For Ca^2+ transient measurements, myocytes were excited under 0.5 Hz and 3 Hz field stimulation, and the fluorescence signals were obtained using a Nikon TE 2000 microscope and collected through an InCyt Standard photometry system. For cytosolic Ca^2+ analysis in quiescent myocytes, a Zeiss LSM 510 confocal microscope was used to record fluorescent images from resting myocytes. Line-scan mode was applied at 3.07 ms intervals with 512 pixels spaced at 0.056 μm. Drugs were dissolved in Tyrode's solution and perfused into the chamber. Images of myocytes were recorded every 30 s after drug application. Data analysis was performed using Clampfit 9.2 and Image J 1.44 software.\nWater soluble probenecid was used for all of the myocyte experiments."}},
  "note": "“Also recorded” adds a separate entry of the source.",
  "data": [
    {"smiles": "CCCN(CCC)S(=O)(=O)c1ccc(C(=O)O)cc1", "note": "[probenecid]", "values": [
      {"measurement": "increase of myocyte fractional shortening (FS)", "setting": "[1]; 0.1 μM, 0.5 Hz, room temp, n=6", "result": "30.8±1.4", "unit": "%"},
      {"measurement": "myocyte fractional shortening (FS)", "setting": "[1]; 0.1 μM, 0.5 Hz, room temp, from 6.9% control", "result": 9.0, "unit": "%"},
      {"measurement": "myocyte fractional shortening (FS)", "setting": "[1]; 3 Hz and 32° C., n=4, from 10.1% control", "result": 13.9, "unit": "%"},
      {"measurement": "EC50", "setting": "[1]; Mus musculus, Ventricular myocyte, isolated ventricular myocytes, averages from 4 mice, read-out: EC50 of dose-response curve on myocyte contractility", "result": 1.6, "unit": "nM"},
      {"measurement": "maximum +dL/dt (rate of shortening)", "setting": "[1]; room temperature, n=10, from 80.6±12.3", "result": "112.5±16.6", "unit": "μm/sec"},
      {"measurement": "−dL/dt (rate of relengthening)", "setting": "[1]; room temperature, from 57.7±7.4", "result": "77.6±8.7", "unit": "μm/sec"},
      {"measurement": "peak +dP/dt in vivo", "setting": "WT mice [2]", "result": "rapidly increased"},
      {"measurement": "electrocardiographic differences between WT and TRPV2−/− mice (FIG. 2D)", "setting": "WT mice [3]; 100 mg/kg IP", "result": "no significant differences"},
      {"measurement": "changes in conduction intervals (RR, PR, QRS)", "setting": "WT mice [3]; all doses", "result": "no measured changes in any conduction intervals; also recorded: no significant changes in any of the measured electrocardiographic variables"},
      {"measurement": "supraventricular or ventricular arrhythmias, premature beats", "setting": "WT mice [3]; any dose of probenecid, observed over 30 minutes", "result": "No supraventricular or ventricular arrhythmias or premature atrial or ventricular beats were observed; also recorded: no arrhythmias"},
      {"measurement": "expression levels of NCX and SERCA2a", "setting": "[4]; hearts after 10^−6 M perfusion, data not shown", "result": "no changes were found in the expression levels"},
      {"measurement": "amount of phosphorylated or total phospholamban or ryanodine receptor", "setting": "[4]; hearts after 5 minute perfusion of 10^−6 M", "result": "no significant changes"},
      {"measurement": "cytosolic Ca2+ in TRPV2-expressing cells", "setting": "TRPV2", "result": "significant increase"},
      {"measurement": "decay rate (Tau) of Ca2+ transient", "setting": "[5]; 0.1 μM", "result": "not affected"},
      {"measurement": "time to peak of cytosolic Ca2+ after treatment", "setting": "[5]; 0.1 μM", "result": "approximately 5 min"},
      {"measurement": "Ca2+ spark frequency", "setting": "[5]; 0.1 μM for 5 minutes, from 1.45±0.09", "result": "2.99±0.24"},
      {"measurement": "increase of cytosolic Ca2+ compared to control at steady state", "setting": "[5]; 0.1 μM, quiescent myocytes", "result": "2.5±0.2", "unit": "fold"},
      {"measurement": "Ca2+ transient amplitude (ΔF/F0)", "setting": "[5]; 0.1 μM, from 3.35±0.20, P<0.001", "result": "4.25±0.25"}
    ]}
  ]
}
